What all share (type): functional
Assay [1] relates to Amphibalanus amphitrite. The assay can be described thus: Antifouling activity against cypris larvae at 10 ug/cm'2.
Assay [2] has as its system Amphibalanus amphitrite. The assay can be described thus: Antifouling activity against cypris larvae at 1 ug/cm'2.
Assay [3] deals with Amphibalanus amphitrite. The assay can be described thus: Antifouling activity against cypris larvae at 0.01 ug/cm'2.
The subject of assay [4] is Amphibalanus amphitrite. Description: Antifouling activity against cypris larvae at 0.1 ug/cm'2.

Regarding `C=C(C)C(Cl)C/C=C(\C)C(Cl)CBr` (configuration not stated), the Activity was found to be 58% with Amphibalanus amphitrite [1], 53% in the assay with Amphibalanus amphitrite [2], 57% in the assay with Amphibalanus amphitrite [3] and 52% with Amphibalanus amphitrite [4].

Consider `C[C@](Cl)(/C=C/[C@H](Cl)[C@](C)(Cl)/C=C/Br)C(Br)Br`, for which the Activity in the assay on Amphibalanus amphitrite [1] was found to be 2.2%; in the assay on Amphibalanus amphitrite [2], 37%; in the assay with Amphibalanus amphitrite [3], 42%; with Amphibalanus amphitrite [4], 54%.

On to `C=CC(C)(O)CCCC(C)CCCC(C)CCCC(C)C` (configuration not stated), for which the Activity in the assay on Amphibalanus amphitrite [1] is given as 13%; in the assay with Amphibalanus amphitrite [2], 23%; in the assay with Amphibalanus amphitrite [3], 43%; in the assay on Amphibalanus amphitrite [4], 54%.

The values are drawn from ChEMBL document CHEMBL1157276, “Halogenated monoterpenes from plocamium costatum and their biological activity1” (1999).
